Bridge positions count the residues as written; N and C are the ends. Peptide text beside a SMILES is read from it.
Columns and labels:
human Nav1.7 = target: T1, human Nav1.7 (Homo sapiens, UniProt Q15858); assay: Automated patch-clamp (Nanion SyncroPatch 384PE) on CHO cells expressing human Nav1.7; format: cell-based; conditions: for time constant of inhibition: mono-exponential fit
T1 construct: expressed in transfected cells
Description: We used a CHO mammalian cell line expressing the human Nav1.7 instead of Xenopus oocytes for the pharmacological evaluation. […] 100-ms pulses from −100 mV to −10 mV were applied at a frequency of 0.2 Hz and various concentrations of PhlTx1 were applied to the cells. […] Using a manual patch clamp, which is better suited to investigate current recovery from block than an automated patch clamp that requires several washing steps, we investigated the reversibility properties of a PhlTx1 block.
CHO cells stably expressing the human Nav1.7 cells were cultured in Dulbecco’s Modified Eagle’s Medium (DMEM) supplemented with 10% fetal calf serum, 1 mM pyruvic acid, 4 mM glutamine, 10 IU/mL penicillin and 10 μg/mL streptomycin (Gibco, Grand Island, NY, USA), and incubated at 37 °C in a 5% CO2 atmosphere. For automated patch-clamp recordings, cells were detached with trypsin and floating single cells were diluted (~300,000 cells/mL) in medium contained (in mM): 4 KCl, 140 NaCl, 5 Glucose, 10 HEPES (pH 7.4, osmolarity 290 mOsm).
Chips with single-hole and high-resistance (~6–7 MΩ) were used for CHO cell recordings. Voltage pulses and whole-cell recordings were achieved using the PatchControl384 v1.5.2 software (Nanion, Munich, Germany) and the Biomek v1.0 interface (Beckman Coulter). Prior recordings, dissociated cells were shaken at 60 RPM in a cell hotel reservoir at 10 °C. After cell catching, sealing, whole-cell formation, liquid application, recording, and data acquisition were all performed sequentially and automatically. […] Whole-cell experiments were done at −100 mV holding potential and at room temperature (18–22 °C), while currents triggered at −10 mV test potential were sampled at 20 kHz. Stimulation frequency was set at 0.2 Hz. Toxins were prepared at various concentrations in the extracellular solution, itself supplemented with 0.3% BSA. […] Compound solutions were diluted 3 times in the patch-clamp recording well by adding 30 μL to 60 μL external solution to reach the final reported concentration and the test volume of 90 μL. Percentages of current inhibitions were measured at the end of a 12- to 15-min application time (12-min for fast blocking toxins; 15-min for slow blocking ones). A single concentration of peptide was tested on each cell for building the full-inhibition curves.

hNav1.4 = target: T2, hNav1.4 (Homo sapiens, UniProt P35499); assay: Automated patch-clamp dose-response on hNav1.4 expressed in CHO cells; format: cell-based; conditions: 4 to 13 cells per concentration, read-out: calculated IC50
T2 construct: expressed in transfected cells; host or cells: CHO cells
T2 sequence (P35499 whole entry): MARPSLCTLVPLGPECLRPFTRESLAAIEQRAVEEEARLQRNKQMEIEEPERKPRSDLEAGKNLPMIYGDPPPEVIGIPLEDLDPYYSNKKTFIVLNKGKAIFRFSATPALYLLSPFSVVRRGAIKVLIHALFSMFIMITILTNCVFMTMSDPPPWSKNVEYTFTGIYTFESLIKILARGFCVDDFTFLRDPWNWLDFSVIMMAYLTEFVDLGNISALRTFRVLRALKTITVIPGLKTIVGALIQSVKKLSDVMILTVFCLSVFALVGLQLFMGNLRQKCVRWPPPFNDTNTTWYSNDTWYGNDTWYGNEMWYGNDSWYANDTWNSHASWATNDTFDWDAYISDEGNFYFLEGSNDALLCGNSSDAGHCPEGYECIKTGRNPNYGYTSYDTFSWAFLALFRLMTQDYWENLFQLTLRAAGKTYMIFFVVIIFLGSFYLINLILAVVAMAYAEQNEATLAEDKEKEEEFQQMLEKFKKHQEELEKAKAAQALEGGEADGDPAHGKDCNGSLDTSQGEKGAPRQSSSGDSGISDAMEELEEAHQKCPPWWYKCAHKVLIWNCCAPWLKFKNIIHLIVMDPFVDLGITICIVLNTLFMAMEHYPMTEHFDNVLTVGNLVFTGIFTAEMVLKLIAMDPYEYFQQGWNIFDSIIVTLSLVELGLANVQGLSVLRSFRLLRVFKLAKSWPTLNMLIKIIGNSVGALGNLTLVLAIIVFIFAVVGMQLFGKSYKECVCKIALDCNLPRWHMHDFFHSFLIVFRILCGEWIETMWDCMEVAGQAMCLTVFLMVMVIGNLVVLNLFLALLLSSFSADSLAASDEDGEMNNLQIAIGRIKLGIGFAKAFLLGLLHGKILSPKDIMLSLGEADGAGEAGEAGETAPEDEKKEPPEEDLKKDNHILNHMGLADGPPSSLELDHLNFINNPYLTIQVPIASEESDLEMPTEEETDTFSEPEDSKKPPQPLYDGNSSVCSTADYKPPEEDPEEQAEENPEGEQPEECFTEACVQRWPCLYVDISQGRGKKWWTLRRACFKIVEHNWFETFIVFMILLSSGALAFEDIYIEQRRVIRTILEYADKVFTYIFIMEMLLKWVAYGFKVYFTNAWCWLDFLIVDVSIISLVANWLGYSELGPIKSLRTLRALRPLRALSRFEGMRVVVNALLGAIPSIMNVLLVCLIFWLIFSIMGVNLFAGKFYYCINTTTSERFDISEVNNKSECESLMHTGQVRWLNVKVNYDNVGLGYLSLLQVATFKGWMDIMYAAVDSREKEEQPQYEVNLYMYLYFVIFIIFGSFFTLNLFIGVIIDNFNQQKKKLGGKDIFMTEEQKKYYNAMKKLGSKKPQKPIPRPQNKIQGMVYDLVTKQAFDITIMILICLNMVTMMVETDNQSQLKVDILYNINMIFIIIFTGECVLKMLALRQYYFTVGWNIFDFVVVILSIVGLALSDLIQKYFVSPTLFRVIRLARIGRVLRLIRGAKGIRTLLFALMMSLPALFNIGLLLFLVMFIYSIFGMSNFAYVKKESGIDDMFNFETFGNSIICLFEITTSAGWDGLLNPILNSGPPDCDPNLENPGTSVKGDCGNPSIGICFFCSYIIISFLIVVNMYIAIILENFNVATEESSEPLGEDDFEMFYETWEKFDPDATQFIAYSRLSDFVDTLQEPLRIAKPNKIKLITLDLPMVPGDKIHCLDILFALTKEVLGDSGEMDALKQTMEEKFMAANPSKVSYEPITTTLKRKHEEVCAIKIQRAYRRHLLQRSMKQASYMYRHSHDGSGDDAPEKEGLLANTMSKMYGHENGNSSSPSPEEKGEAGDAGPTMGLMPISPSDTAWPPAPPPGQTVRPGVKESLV

human Nav1.7 channel = conditions: ref [47]; cited from earlier work
hNav1.7 = target: T3, hNav1.7 (Homo sapiens, UniProt Q15858); assay: Manual patch clamp, reversibility of block of hNav1.7 currents; format: cell-based
T3 construct: expressed in transfected cells
T3 sequence (Q15858 whole entry): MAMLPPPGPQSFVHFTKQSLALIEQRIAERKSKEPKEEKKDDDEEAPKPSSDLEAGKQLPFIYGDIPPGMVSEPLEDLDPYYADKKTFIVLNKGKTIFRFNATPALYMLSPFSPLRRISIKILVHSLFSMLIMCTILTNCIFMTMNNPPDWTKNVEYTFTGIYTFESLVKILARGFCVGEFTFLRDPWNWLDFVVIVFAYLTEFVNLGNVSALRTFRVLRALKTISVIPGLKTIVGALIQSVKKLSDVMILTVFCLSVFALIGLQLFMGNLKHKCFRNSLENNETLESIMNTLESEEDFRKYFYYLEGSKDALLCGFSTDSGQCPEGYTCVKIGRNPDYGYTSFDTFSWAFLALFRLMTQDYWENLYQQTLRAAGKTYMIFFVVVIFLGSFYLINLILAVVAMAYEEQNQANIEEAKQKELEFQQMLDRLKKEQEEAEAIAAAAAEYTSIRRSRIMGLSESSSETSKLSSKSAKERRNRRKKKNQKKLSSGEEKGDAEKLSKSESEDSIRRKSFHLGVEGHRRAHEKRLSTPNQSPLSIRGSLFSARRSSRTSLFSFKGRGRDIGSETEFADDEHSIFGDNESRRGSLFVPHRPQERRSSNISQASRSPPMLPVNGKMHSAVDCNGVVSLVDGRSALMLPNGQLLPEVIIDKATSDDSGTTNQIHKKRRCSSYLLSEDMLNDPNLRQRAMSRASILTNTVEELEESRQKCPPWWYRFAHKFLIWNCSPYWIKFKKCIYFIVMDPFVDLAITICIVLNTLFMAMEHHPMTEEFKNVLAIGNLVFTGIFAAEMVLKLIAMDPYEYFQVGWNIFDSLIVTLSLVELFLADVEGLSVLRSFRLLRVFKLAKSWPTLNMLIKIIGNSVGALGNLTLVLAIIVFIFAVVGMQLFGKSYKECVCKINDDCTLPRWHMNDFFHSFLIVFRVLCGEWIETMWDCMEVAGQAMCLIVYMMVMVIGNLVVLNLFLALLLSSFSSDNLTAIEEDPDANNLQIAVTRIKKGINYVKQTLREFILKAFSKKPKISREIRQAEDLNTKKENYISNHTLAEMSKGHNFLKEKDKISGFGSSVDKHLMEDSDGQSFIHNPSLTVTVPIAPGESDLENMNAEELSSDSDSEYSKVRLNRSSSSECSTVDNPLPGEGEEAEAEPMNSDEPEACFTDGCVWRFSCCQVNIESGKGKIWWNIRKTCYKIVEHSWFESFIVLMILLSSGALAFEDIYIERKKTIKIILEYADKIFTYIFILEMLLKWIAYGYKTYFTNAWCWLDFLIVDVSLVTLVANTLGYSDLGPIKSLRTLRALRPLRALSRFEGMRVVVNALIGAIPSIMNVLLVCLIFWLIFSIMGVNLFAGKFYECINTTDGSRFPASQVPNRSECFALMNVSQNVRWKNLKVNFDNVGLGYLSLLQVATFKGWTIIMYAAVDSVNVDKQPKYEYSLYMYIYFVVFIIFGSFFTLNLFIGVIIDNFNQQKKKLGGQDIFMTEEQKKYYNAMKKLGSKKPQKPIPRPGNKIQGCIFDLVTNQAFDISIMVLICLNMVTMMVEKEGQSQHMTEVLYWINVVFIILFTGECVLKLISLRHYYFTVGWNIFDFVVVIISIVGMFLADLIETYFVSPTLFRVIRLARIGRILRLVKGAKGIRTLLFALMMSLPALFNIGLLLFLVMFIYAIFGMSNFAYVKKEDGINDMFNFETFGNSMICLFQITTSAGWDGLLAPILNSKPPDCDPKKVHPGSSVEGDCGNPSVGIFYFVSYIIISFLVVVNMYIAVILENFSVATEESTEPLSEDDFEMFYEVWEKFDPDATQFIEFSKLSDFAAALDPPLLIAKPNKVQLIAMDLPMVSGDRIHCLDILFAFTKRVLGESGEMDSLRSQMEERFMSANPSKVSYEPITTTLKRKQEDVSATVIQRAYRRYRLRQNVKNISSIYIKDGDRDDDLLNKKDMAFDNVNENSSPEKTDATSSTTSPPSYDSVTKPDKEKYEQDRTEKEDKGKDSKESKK
Description: Following our initial screen for the selectivity of synthetic PhlTx1 and the discovery that Nav1.7 was the main target, we decided to further evaluate the activity of PhlTx1. We used a CHO mammalian cell line expressing the human Nav1.7 instead of Xenopus oocytes for the pharmacological evaluation. To this end, we used an automated patch-clamp system, the Nanion syncropatch 384PE, and a standardized robotic method from Beckmann to apply PhlTx1 in the recording chambers and collect the kinetic information of Nav1.7 current from a high number of Nav1.7-expressing cells. The syncropatch 384PE has the potential to record from 384 cells at a time. 100-ms pulses from −100 mV to −10 mV were applied at a frequency of 0.2 Hz and various concentrations of PhlTx1 were applied to the cells. An example of a Nav1.7 current recording is illustrated in Figure 6A along with the effect of 100 nM PhlTx1. It is of interest to note that current inhibition develops over time at this PhlTx1 concentration that is above 50% at the end of a 13-min application time. […] Note that the highest achievable inhibition was 85%–92% for the two most efficient concentrations (333 nM and 1 μM). The time constant of inhibition was concentration-dependent as expected and could be fitted with decreasing mono-exponentials with time constants of 253 s (33 nM, n = 4), 159 s (100 nM, n = 8), 97 s (333 nM, n = 6) and 36 s (1 μM, n = 8). […] Using a manual patch clamp, which is better suited to investigate current recovery from block than an automated patch clamp that requires several washing steps, we investigated the reversibility properties of a PhlTx1 block. […] After 16 min of washout of 100 nM PhlTx1, we observed a maximum of 32% recovery of the blocked current that occurred with a time constant of 303 s. Since Nav1.4 and Nav1.6 were the two most sensitive channels to the PhlTx1 block, we also performed dose-response curves for these two channels with the automated patch clamp system.
Figure 6 PhlTx1 inhibition of Nav1.7 channels expressed in a mammalian cell line. […]

T1 sequence (Q15858 whole entry): as above

Compound: CC(C)C[C@@H]1NC(=O)[C@@H](NC(=O)[C@H](C)N)CSSC[C@@H]2NC(=O)[C@@H]3CSSC[C@@H](C(=O)N[C@@H](CCCNC(=N)N)C(=O)N[C@@H](Cc4ccc(O)cc4)C(=O)N[C@@H](CCCCN)C(=O)N[C@@H](CC(C)C)C(=O)N[C@@H](Cc4ccccc4)C(=O)O)NC(=O)[C@H](Cc4c[nH]c5ccccc45)NC(=O)[C@@H]4CCCN4C(=O)[C@H](Cc4ccc(O)cc4)NC(=O)[C@H](CCCCN)NC(=O)[C@H](Cc4c[nH]c5ccccc45)NC(=O)[C@H](CCC(=O)O)NC(=O)[C@H](CSSC[C@H](NC(=O)[C@H](CO)NC(=O)[C@H](CC(=O)O)NC(=O)[C@H](Cc4c[nH]c5ccccc45)NC(=O)[C@H](CCC(N)=O)NC(=O)CNC1=O)C(=O)N[C@@H](CC(=O)O)C(=O)N1CCC[C@H]1C(=O)N[C@@H](CCCCN)C(=O)N[C@@H](C)C(=O)N[C@@H](CO)C(=O)N[C@@H](CCCCN)C(=O)N3)NC(=O)[C@H](C)NC(=O)[C@H](Cc1ccc(O)cc1)NC(=O)[C@H](CC(N)=O)NC(=O)[C@@H]1CCCN1C2=O [PhlTx1, Phlotoxin-1] (H-ACLGQWDSCDPKASKCCPNYACEWKYPWCRYKLF-OH; disulfide 2-17, 9-22, 16-29; N-terminus and C-terminus assumed)
- IC50 (human Nav1.7): 0.039 µM
- time constant of inhibition (human Nav1.7; 33 nM, n = 4): 253 s
- block of Nav1.7 inward current (human Nav1.7; 100 nM toxin, end of application (about 12-13 min), CHO hNav1.7): above 50%
- time constant of inhibition (τ) (human Nav1.7; 100 nM, mono-exponential fit (PhlTx1 n = 8)): 159 s
- time constant of inhibition (human Nav1.7; 333 nM, n = 6): 97 s
- c value of mono-exponential decay fit (block not complete) (human Nav1.7; 1 μM PhlTx1, normalized current): 0.09
- time constant of inhibition (human Nav1.7; 1 μM, n = 8): 36 s
- Hill value (human Nav1.7; same dose-response fit as IC50, CHO hNav1.7 automated patch-clamp): 1.53
- highest achievable inhibition (human Nav1.7; two most efficient concentrations (333 nM and 1 μM)): 85%–92%
- IC50 (hNav1.4): > 3 µM
- IC50 (human Nav1.7 channel): 0.25 µM
- reversibility of block (hNav1.7): partially and poorly reversible
- maximum recovery of the blocked current (hNav1.7; after 16 min of washout of 100 nM PhlTx1, n = 5 cells): ≤ 32%
- time constant of recovery from block (hNav1.7; washout of 100 nM PhlTx1, n = 5 cells): 303 s

Reference: PMC6628435, “Chemical Synthesis, Proper Folding, Nav Channel Selectivity Profile and Analgesic Properties of the Spider Peptide Phlotoxin 1” (Toxins, 2019)
